Assay results taken from patent US20250326757A1, “SOLID FORMS OF HETEROCYCLYLAMIDES AS IRAK4 INHIBITORS” (AstraZeneca AB, priority 2022, published 2025).

Tests used:
[1] = format: physicochemical
Experimental: Amorphous Compound (I) (20 mg) was suspended in 2-propanol (800 μL) and stirred at room temperature for 2 weeks. The resultant solid was collected by filtration.

[2] = format: physicochemical; conditions: 70° C., low (11%) and high (75%) relative humidity, 21 days
Experimental: The physical and chemical stability of N-(Imidazo[1,2-b]pyridazin-3-yl)-6-methoxy-2-((1r,4r)-4-(N-methylacetamido)cyclohexyl)-2H-indazole-5-carboxamide Form A was further assessed under stressed conditions (elevated temperature (70° C.) at low (11%) and high (75%) relative humidity) over a period of 21 days according to standard protocols. Briefly, samples of Form A material were weighed into sample vials, the sample vials were placed in separate jars each containing a MadgeTech temperature and humidity logger and, in a separate vial, a saturated solution of either lithium chloride (to give 11% relative humidity) or sodium chloride (to give 75% relative humidity). The two jars (low/high humidity) were then sealed and placed in a calibrated oven at a temperature of 70° C. for a period of 21 days. Control samples were maintained in sealed vials in a refrigerator for the duration of the study.
Furthermore, XRPD confirmed that the physical form of the material over the course of the study was unchanged. It could thus be concluded that no chemical degradation of the samples or change in their physical form occurred on storage under stressed conditions. Accordingly, the suitability of N-(Imidazo[1,2-b]pyridazin-3-yl)-6-methoxy-2-((1r,4r)-4-(N-methylacetamido)cyclohexyl)-2H-indazole-5-carboxamide Form A for further development in pharmaceutical formulations was established.

COc1cc2nn([C@H]3CC[C@H](N(C)C(C)=O)CC3)cc2cc1C(=O)Nc1cnc2cccnn12 [Form A, N-(Imidazo[1,2-b]pyridazin-3-yl)-6-methoxy-2-((1r,4r)-4-(N-methylacetamido)cyclohexyl)-2H-indazole-5-carboxamide Form A]
Stability to prolonged storage under accelerated ageing conditions [1]: stable | Physical form by XRPD over the course of the study [2]: unchanged
